# In patent US20200230205A1, “COMPOSITIONS AND METHODS FOR TREATING MYELIN DISORDERS” (CASE WESTERN RESERVE UNIVERSITY, priority 2017, published 2020):
# Key:
# aggrecan (CS56) = assay: CSPG degradation by OPC conditioned media (CS56 spot quantification and western blot of aggrecan); format: cell-based, mouse; conditions: for aggrecan GAG digestion (CS56 immunoblot): Exo1 10 μg/mL, GM6001 25 μM or OA-Hy 100 nM with 2.5 μM ISP
# Description: (§1) CSPG gradients were prepared as described previously (Tom, V. J., et al. Studies on the Development and Behavior of the Dystrophic Growth Cone, the Hallmark of Regeneration Failure, in an In vitro Model of the Glial Scar and after Spinal Cord Injury.). 24-well glass coverslip were coated with poly-L-lysine and nitrocellulose, and a mixture of 700 μg/mL aggrecan (A1960 Sigma) and 10 μg/mL laminin (11243217001 Sigma) spotted on the coated coverslip. After drying, coated coverslips were then incubated with laminin at 37° C. for 3h. Purified OPCs were plated at a density of 10,000/coverslip and cultured in DMEM/F12 medium containing with N2, PDGF (20 ng/ml), FGF (20 ng/ml), NT-3 (5 ng/ml), CNTF (O1 ng/ml), Glutamine (200 mM). Coverslips were stained with CS-56 (C8035, Sigma, 1:500) and O4 antibodies (Hybridoma Core Cleveland Clinic, 1:10). O4-positive cells crossing the aggrecan border were counted for each spot. For CSPG gradient quantification, 1×10^6 OPCs were plated per well on PLL, 1 μg/mL laminin, and 2 μg/mL aggrecan coated 6-well plates. OPCs treated with vehicle, 2.5 μM ISP, or 2.5 μM SISP for 2 days at 37° C. CM was harvested and incubated with freshly made spots. Spots were incubated with CM for 2 days at 37° C. then stained with CS-56 and laminin (L9393, Sigma, 1:1000) antibodies and consistently imaged. Using ImageJ software (NIH), pixel intensities of the CS-56 or laminin spot rims were quantified using the same ROI. For cultured spinal cord explant, the spinal cords of cervical and thoracic of P1 mouse pups were chopped into 1-2 mm tissue pieces and transferred to the coverslip. Explants were cultured in DMEM/F12 medium with 15% FBS (Hyclone), O1 ng/ml PDGF (Sigma) and N2 supplement (Invitrogen). For ISP treatment, 2.5 uM ISP was added to the media at the time of plating. 25 μM GM6001 (2983, Tocris), 100 nM MMP-2 inhibitor (444244, Calbiochem), and/or 2.5 μM ISP or SISP was used.
# CM was harvested from 1×10^6 OPCs incubated on PLL, 1 μg/mL laminin, and 2 μg/mL aggrecan coated 6-well plates. OPCs were treated with vehicle, 2.5 μM ISP, or 2.5 μM SISP in conjunction with 10 μg/mL Exo1 (ab120292, Abcam), or 25 μM GM6001 (364205, Calbiochem) for 2 days at 37° C. […] CM of each cell-strained group was incubated with 20 μg/mL aggrecan and/or 10 μg/mL laminin for 2 hours in lmL Eppendorf tubes at 37° C. As a positive control, OPC media was incubated with aggrecan and incubated in the same fashion. Western blots were then performed as described below with incubation against CS-56 and/or laminin antibodies.
# [1] = tested on: organotypic cerebellar slice cultures; assay: LPC-induced demyelination in mouse cerebellar slice cultures; format: cell-based; conditions: 25 μM GM6001 or 100 nM OA-Hy in conjunction with 2.5 μM ISP, 9 days
# Description: We carried out the cerebellar slice culture method as described previously (Zhang, H., et al. Central nervous system remyelination in culture—A tool for multiple sclerosis research. Experimental Neurology 230, 138-148 (2011)). Briefly, 300 μm-thick cerebellar slices were cut from P10-12 mouse cerebellum using a Leica vibrating microtome (Leica, VT1000S) and cultured in medium containing 50% basal medium eagle medium, 25% Heat-inactivated horse serum, 25% Hank's solution, 2.5% glucose, 1% glutamine and penicillin-streptomycin. After 4 days in vitro (DIV), 0.5 mg/ml LPC were added for 17-18h to induce demyelination. Slices were then incubated with 2.5 μM ISP for 8 days. For GM6001 experiments, 25 μM GM6001 (Tocris) and/or 2.5 μM ISP or SISP was incubated for 9 days. Remyelination was examined by semi-quantitative Western blot of MBP and immunofluorescence stain of MBP and NeuF200.
# Slices were fixed with 4% PFA, delipidated, and washed three times in PBS, blocked in PBS containing 0.1% Triton X-100 and 5% normal goat serum and incubated with anti-MBP (SMI-99P, Covance, 1:300), and anti-NeuF200 (N4142, Sigma, 1:250) antibodies overnight at 4° C. The slices were then washed in PBS and incubated in Alexa Fluor-conjugated secondary antibodies (1:500, invitrogen) for 2h. Slices were mounted in Vectashield mounting medium with DAPI (Vector Laboratories) and analyzed using Leica DFC500 fluorescence microscope.
# [2] = tested on: oligodendrocyte progenitor cells (OPCs); assay: CSPG gradient crossing (spot) assay, OPC migration; format: cell-based, mouse; conditions: 25 μM GM6001 or 100 nM OA-Hy, even in the presence of ISP
# Description: as §1
# [3] = tested on: oligodendrocyte progenitor cells (OPCs); assay: Ki-67 proliferation and TUNEL apoptosis of OPCs on aggrecan/laminin; format: cell-based, mouse; conditions: 2.5 μM peptide, 2 div, laminin 1 and aggrecan 2 μg/mL, vs control
# Description: To assess proliferation, OPCs were plated on 24-well coverslips that were precoated with PLL, 1 μg/mL laminin, and 2 μg/mL aggrecan. OPCs were treated with vehicle, 2.5 μM ISP or SISP immediately upon plating for 2 days at 37° C. Coverslips were fixed and stained using the same method described in the immunocytochemistry section with Ki-67 (550609, BD Pharmingen, 1:500) and O4 (1:10). Coverslips were imaged and counted. To assess apoptosis, OPCs were cultured in the same fashion and incubated with vehicle or 1 μg/mL LPC for 2 hours at 2 days following vehicle, 2.5 μM ISP or SISP incubation. Coverslips were then fixed with PFA and methanol then stained using APO-BrdU TUNEL assay kit (A23210, ThermoFisher) and guidelines with an O/N incubation of the primary antibody at RT. Coverslips were additionally costained with DAPI (D9542, Sigma, 1:10,000) then imaged and counted.
# MMP-10 = MMP-10 western blot of OPC conditioned media; format: cell-based, mouse; conditions: OPC CM, 2.5 μM peptide, same as vehicle
# Description: To assess MMP-2 or 10 in OPC CM or lysates, OPCs were incubated on precoated PLL, aggrecan, and laminin as described above. OPCs were treated with vehicle, 2.5 μM ISP or SISP for 2 days at 37° C. CM was then harvested and concentrated using Milipore Ultracel YM-C centrifugal filter units at max speed (Eppendorf Centrifuge […]) for 30 minutes at 4° C. […] of concentrated CM was loaded into each lane. OPC lysates were assessed using western blot techniques described below with […] protein loaded from each group. Tissue samples or cerebellar slices or purified OPC cells were homogenized with RIPA lysis buffer and protein concentration was determined by Pierce BCA protein assay kit according to the manufacture instruction (Thermo Fisher). Then, equal amounts of protein were loaded to 15% SDS-PAGE gels, and electrophoretically transferred to PVDF membranes (Millipore). The membranes were blocked in 0.1% TPBS buffer with 5% non-fat milk for 1h at room temperature and probed with indicated primary antibodies overnight at 4° C. and followed by secondary antibody conjugated to horseradish peroxidase (HRP). […] Enhanced chemiluminescence was performed with a West Pico Kit (Thermo Fisher) and detected by FluorChem E system (ProteinSimple, USA). The density of bands was quantified using ImageJ software (NIH).
Molecule,aggrecan GAG digestion (CS56 immunoblot) (aggrecan (CS56)),colocalization of MBP and neurofilament+ axons [1],OPC entry into the CSPG-rich area [2],CS56 spot degradation (aggrecan (CS56); 25 μM GM6001 or 100 nM OA-Hy with 2.5 μM ISP),OPC proliferation (Ki67) [3],"MMP-10 secretion, western blot (MMP-10)"
COC(=O)c1ccccc1NC(=O)c1ccc(F)cc1 [Exo1],partially rescued aggrecan GAG digestion,,,,,
CNC(=O)[C@H](Cc1c[nH]c2ccccc12)NC(=O)[C@@H](CC(=O)NO)CC(C)C [GM6001],partially rescued,decreased,effectively halted OPC entry,additionally rescued CS56 spot degradation,,
"GRKKRRQRRRCIREDDSLMLYALAQEKKESNMHES [SISP, scrambled ISP control peptide, reference compound]",,,,,not significantly changed,equally low amounts
